The nature of series [1]: Inhalation of insulin/enhancer powder in rats, blood glucose monitored as measure of insulin uptake. The series is classed as in vivo, rat. As to conditions: for Effect (enhancement of insulin uptake, blood glucose level): rats, inhaled powder; for Enhancement of polypeptide (insulin) absorption in the lung, result in words: rat model.
Method: Each of the compounds listed in Table I was tested for its ability to enhance uptake of a polypeptide (insulin) in a rat model.
Various forms of insulin were employed in the different trials: recombinant human, semisynthetic human or bovine. Each formulation was prepared as above, drying and processing the insulin/enhancer or insulin/enhancer/lactose solution to produce an inhalable powder. The powder was administered to rats by inhalation, and the blood glucose levels of the rats were subsequently monitored as a measure of insulin uptake. These levels were compared to the corresponding values obtained from rats which had inhaled insulin formulations without enhancer.
Series [2] deals with CaCo-2 epithelial cell monolayer. The experiment in a line: In vitro CaCo-2 epithelial cell monolayer transport assay. As to conditions: for Transport rate across the monolayer with enhancer, in words: up to 16 mM sodium caprate. The class given is in vitro ADME. How it is done:
A standard in vitro assay utilizing an epithelial cell line, CaCo-2 (available through the American Type Culture Collection (ATCC), Rockville, Md., USA), has been developed to assess the ability of various enhancer compounds to promote transport of markers across an epithelial cell monolayer, as a model for the epithelial cell layer which functions in the lung to separate the alveolus from the pulmonary blood supply.
In this assay, the enhancer and polypeptide or other marker are dissolved in aqueous solution at various proportions and/or concentrations, and applied to the apical side of the cell monolayer. After 60 min incubation at 37° C. and 95% RH (relative humidity), the amount of the marker on the basolateral side of the cells is determined, e.g., by use of a radioactively labelled marker.

Setting [3] is: Enhancer:Insulin:lactose 2:4:94.
Where [4] appears, read: Enhancer:Insulin:lactose 4:4:92.
Where [5] appears, read: Enhancer:Insulin:lactose 25:75:0.

For `CCCCCCCC(=O)OCC(COP(=O)([O-])OCC[N+](C)(C)C)OC(=O)CCCCCCC` (stereo not shown) [Dioctanoylphosphatidylcholine], the “Effect (enhancement of insulin uptake, blood glucose level)” value (shortened to “Effect”) in series [1] (setting [3]) is on record as “(+)”; in series [1] (Enhancer:Insulin:lactose 4:4:94), “-”.

With `O=C(O)CN(CCN(CC(=O)O)CC(=O)O)CC(=O)O` [EDTA, ethylenediaminetetraacetic acid], the “Enhancement of polypeptide (insulin) absorption in the lung, result in words” value (from here on “Enhancement of polypeptide”) in series [1] is “ineffective”.

With `CCCCCCCCOC1O[C@H](CO)[C@@H](O)[C@H](O)[C@H]1O` (stereo partly shown) [Octylglucopyranoside], in series [1], the “Enhancement of polypeptide” value is given as “some absorption enhancing properties”. The “Effect” value in series [1] (setting [4]) is “(+)”.

For `CCCCCCCCCC(=O)[O-].[K+]` [Potassium caprate], the “Enhancement of polypeptide” value in series [1] is given as “effective”. Besides, the “Effect” value in series [1] (Enhancer:Insulin:lactose 27:73:0) is recorded as “+”.

With `CCCCCCCC/C=C\CCCCCCCC(=O)[O-].[K+]` [Potassium oleate], the “Effect” value in series [1] (setting [4]) is on record as “+”.

Consider `CCCCCCCCCC(=O)[O-].[Na+]` [Sodium caprate], for which the “Amount of marker (mannitol) appearing on the basolateral side, insulin added” value in series [2] (1:3 sodium caprate:insulin by weight, FIG. 2) is “dependent upon the concentration of enhancer used”. Besides, the “Amount of marker (mannitol) appearing on the basolateral side” value in series [2] (sodium caprate up to 16 mM, 60 min, 37° C., FIG. 1) is “dependent upon the concentration of enhancer used”. The “Enhancement of polypeptide” value in series [1] is recorded as “perform well”. Further, the “Effect” value in series [1] (Enhancer:Insulin:lactose 10:90:0) is listed as “(+)”; in series [1] (Enhancer:Insulin:lactose 17.5:82.5:0), “(+)”; in series [1] (setting [5]), “+”.

Consider `CCCCCCCC(=O)[O-].[Na+]` [Sodium caprylate], for which, in series [1] (setting [5]), the “Effect” value is “-”.

On to `C[C@H](CCC(=O)NCC(=O)O)[C@H]1CC[C@H]2[C@@H]3[C@H](O)C[C@@H]4C[C@H](O)CC[C@]4(C)[C@H]3C[C@H](O)[C@]12C` [Sodium glycocholate], for which the “Enhancement of polypeptide” value in series [1] is “effectively enhance polypeptide absorption in the lung”. Also, the “Effect” value in series [1] (setting [4]) is given as “+”.

Consider `CCCCCCCCCCCC(=O)[O-].[Na+]` [Sodium laurate], for which the “Enhancement of polypeptide” value in series [1] is listed as “perform well”. The “Effect” value in series [1] (setting [5]) is recorded as “+”.

Consider `CCCCCCCCCCCCCC(=O)[O-].[Na+]` [Sodium myristate], for which, in series [1], the “Enhancement of polypeptide” value is listed as “perform well”. In series [1] (Enhancer:Insulin:lactose 30:70:0), the “Effect” value was “+”.

Regarding `CC(=O)OC1CC2(C)C(CC(O)C3C4(C)CCC(O)C(C)C4CCC32C)C1=C(CCCC(C)C)C(=O)NCCS(=O)(=O)O` (stereo not shown) [Sodium tarodihydrofusidate], in series [1], the “Enhancement of polypeptide” value is listed as “effectively enhance polypeptide absorption in the lung”. Besides, the “Effect” value in series [1] (setting [3]) is on record as “+”.

As to `C[C@H](CCC(=O)NCCS(=O)(=O)O)[C@H]1CC[C@H]2[C@@H]3[C@H](O)C[C@@H]4C[C@H](O)CC[C@]4(C)[C@H]3C[C@H](O)[C@]12C` [Sodium taurocholate], the “Enhancement of polypeptide” value in series [1] was “effectively enhance polypeptide absorption in the lung”. Also, the “Effect” value in series [1] (setting [4]) is “+”.

`C[C@H](CCC(=O)O)[C@H]1CC[C@H]2[C@@H]3[C@@H](O)C[C@@H]4C[C@H](O)CC[C@]4(C)[C@H]3CC[C@]12C` [Sodium ursodeoxycholate]: in series [1], the “Enhancement of polypeptide” value is reported as “effectively enhance polypeptide absorption in the lung”. In addition, the “Effect” value in series [1] (setting [4]) is “+”.

As to `NC(=O)CC[C@@H]1NC(=O)[C@H](Cc2ccccc2)NC(=O)[C@H](Cc2ccc(O)cc2)NC(=O)[C@@H](N)CSSC[C@@H](C(=O)N2CCC[C@H]2C(=O)N[C@@H](CCCN=C(N)N)C(=O)NCC(N)=O)NC(=O)[C@H](CC(N)=O)NC1=O` [vasopressin], in series [2] (16 mM sodium caprate), the “Increase in amount absorbed across the monolayer compared to absence of enhancer” value was 10-15 times.

On to Dimethyl-β-cyclodextrin, for which, in series [1], the “Enhancement of polypeptide” value is reported as “absorption enhancing effect”. In addition, in series [1] (Enhancer:Insulin:lactose 75:25:0), the “Effect” value is given as “+”.

Regarding Lysine caprate, the “Enhancement of polypeptide” value in series [1] is recorded as “effective”. In series [1] (Enhancer:Insulin:lactose 35:65:0), the “Effect” value is on record as “+”.

Consider Lysophosphatidylcholine, for which the “Enhancement of polypeptide” value in series [1] is given as “effective enhancer”. In addition, in series [1] (setting [4]), the “Effect” value is “+”.

As to albumin, the “Transport rate across the monolayer with enhancer, in words” value (“Transport rate across the monolayer” for short) in series [2] is “no increase in transport rate”.

Consider carbonic anhydrase, for which the “Transport rate across the monolayer” value in series [2] is on record as “no increase in transport rate”.

For the compound cytochrome C, the “Transport rate across the monolayer” value in series [2] was “no increase in transport rate”.

These data come from patent US5952008A, “Processes for preparing compositions for inhalation” (AB Astra, priority 1993, dated 1999).
